Laboratory results published in ChEMBL document CHEMBL4680318, “(S)-Erypoegin K, an isoflavone isolated from Erythrina poeppigiana, is a novel inhibitor of topoisomerase IIα: Induction of G2 phase arrest in human gastric cancer cells” (Bioorg Med Chem, 2021).
Calls of active or inactive are those of the source. No cut-off for these calls is given here.

How the values were obtained:
SF-539 = test: Growth inhibition of human SF-539 cells measured after 48 hrs by sulforhodamine B assay; type: functional
[1] = Toxicity in KSN/Slc nude mouse xenografted with human GCIY cells assessed as effect on body weight at 40 mg/kg, ip administered twice a week for 4 weeks starting from day 4 post inoculation; type: organism-based; conditions: in vivo, 672 h
DU-145 = test: Growth inhibition of human DU-145 cells measured after 48 hrs by sulforhodamine B assay; type: functional
NCI-H460 = test: Growth inhibition of human NCI-H460 cells measured after 48 hrs by sulforhodamine B assay; type: functional
[2] = Growth inhibition of human HBC5 cells measured after 48 hrs by sulforhodamine B assay; type: functional
MKN-45 = test: Growth inhibition of human MKN-45 cells measured after 48 hrs by sulforhodamine B assay; type: functional
A549 = test: Growth inhibition of human A549 cells measured after 48 hrs by sulforhodamine B assay; type: functional
LOX IMVI = test: Growth inhibition of human LOX IMVI cells measured after 48 hrs by sulforhodamine B assay; type: functional
MKN-28 = test: Growth inhibition of human MKN-28 cells measured after 48 hrs by sulforhodamine B assay; type: functional
HT-29 = test: Growth inhibition of human HT-29 cells measured after 48 hrs by sulforhodamine B assay; type: functional
MKN-1 = test: Growth inhibition of human MKN-1 cells measured after 48 hrs by sulforhodamine B assay; type: functional
MCF7 = test: Growth inhibition of human MCF7 cells measured after 48 hrs by sulforhodamine B assay; type: functional
ACHN = test: Growth inhibition of human ACHN cells measured after 48 hrs by sulforhodamine B assay; type: functional
GCIY = test: Antitumor activity against human GCIY cells xenografted in KSN/Slc nude mouse assessed as reduction in tumor size at 40 mg/kg, ip administered twice a week for 4 weeks starting from day 4 post inoculation by vernier caliper method; type: functional, organism-based
DMS-273 = test: Growth inhibition of human DMS-273 cells measured after 48 hrs by sulforhodamine B assay; type: functional
OVCAR-3 = test: Growth inhibition of human OVCAR-3 cells measured after 48 hrs by sulforhodamine B assay; type: functional
SK-OV-3 = test: Growth inhibition of human SK-OV-3 cells measured after 48 hrs by sulforhodamine B assay; type: functional
NCI-H522 = test: Growth inhibition of human NCI-H522 cells measured after 48 hrs by sulforhodamine B assay; type: functional
MDA-MB-231 = test: Growth inhibition of human MDA-MB-231 cells measured after 48 hrs by sulforhodamine B assay; type: functional
HCC 2998 = test: Growth inhibition of human HCC 2998 cells measured after 48 hrs by sulforhodamine B assay; type: functional
SNB-78 = test: Growth inhibition of human SNB-78 cells measured after 48 hrs by sulforhodamine B assay; type: functional
HCT-15 = test: Growth inhibition of human HCT-15 cells measured after 48 hrs by sulforhodamine B assay; type: functional
RXF 631 = test: Growth inhibition of human RXF 631 cells measured after 48 hrs by sulforhodamine B assay; type: functional
U-251 = test: Growth inhibition of human U-251 cells measured after 48 hrs by sulforhodamine B assay; type: functional
SNB-75 = test: Growth inhibition of human SNB-75 cells measured after 48 hrs by sulforhodamine B assay; type: functional
SF-295 = test: Growth inhibition of human SF-295 cells measured after 48 hrs by sulforhodamine B assay; type: functional
KM12 = test: Growth inhibition of human KM12 cells measured after 48 hrs by sulforhodamine B assay; type: functional
St-4 = test: Growth inhibition of human St-4 cells measured after 48 hrs by sulforhodamine B assay; type: functional
MKN-7 = test: Growth inhibition of human MKN-7 cells measured after 48 hrs by sulforhodamine B assay; type: functional
[3] = Growth inhibition of human HBC4 cells measured after 48 hrs by sulforhodamine B assay; type: functional
PC-3 = test: Growth inhibition of human PC-3 cells measured after 48 hrs by sulforhodamine B assay; type: functional
NCI-H23 = test: Growth inhibition of human NCI-H23 cells measured after 48 hrs by sulforhodamine B assay; type: functional
OVCAR-8 = test: Growth inhibition of human OVCAR-8 cells measured after 48 hrs by sulforhodamine B assay; type: functional
OVCAR-5 = test: Growth inhibition of human OVCAR-5 cells measured after 48 hrs by sulforhodamine B assay; type: functional
[4] = Growth inhibition of human BSY1 cells measured after 48 hrs by sulforhodamine B assay; type: functional; conditions: BSY-1
NCI-H226 = test: Growth inhibition of human NCI-H226 cells measured after 48 hrs by sulforhodamine B assay; type: functional
HCT-116 = test: Growth inhibition of human HCT-116 cells measured after 48 hrs by sulforhodamine B assay; type: functional
DMS-114 = test: Growth inhibition of human DMS-114 cells measured after 48 hrs by sulforhodamine B assay; type: functional
SF-268 = test: Growth inhibition of human SF-268 cells measured after 48 hrs by sulforhodamine B assay; type: functional
MKN-74 = test: Growth inhibition of human MKN-74 cells measured after 48 hrs by sulforhodamine B assay; type: functional
OVCAR-4 = test: Growth inhibition of human OVCAR-4 cells measured after 48 hrs by sulforhodamine B assay; type: functional
[5] = target: DNA topoisomerase 2-alpha (Homo sapiens) (UniProt P11388); test: Inhibition of human DNA topoisomerase 2alpha assessed as stabilization of DNA cleavage complex at 50 to 200 uM using supercoiled pSL1180 plasmid DNA as substrate measured after 30 mins by ethidium bromide staining-based UV imaging analysis; conditions: dose 50-200 µM
DNA topoisomerase 2-alpha (Homo sapiens), sequence (P11388 whole entry): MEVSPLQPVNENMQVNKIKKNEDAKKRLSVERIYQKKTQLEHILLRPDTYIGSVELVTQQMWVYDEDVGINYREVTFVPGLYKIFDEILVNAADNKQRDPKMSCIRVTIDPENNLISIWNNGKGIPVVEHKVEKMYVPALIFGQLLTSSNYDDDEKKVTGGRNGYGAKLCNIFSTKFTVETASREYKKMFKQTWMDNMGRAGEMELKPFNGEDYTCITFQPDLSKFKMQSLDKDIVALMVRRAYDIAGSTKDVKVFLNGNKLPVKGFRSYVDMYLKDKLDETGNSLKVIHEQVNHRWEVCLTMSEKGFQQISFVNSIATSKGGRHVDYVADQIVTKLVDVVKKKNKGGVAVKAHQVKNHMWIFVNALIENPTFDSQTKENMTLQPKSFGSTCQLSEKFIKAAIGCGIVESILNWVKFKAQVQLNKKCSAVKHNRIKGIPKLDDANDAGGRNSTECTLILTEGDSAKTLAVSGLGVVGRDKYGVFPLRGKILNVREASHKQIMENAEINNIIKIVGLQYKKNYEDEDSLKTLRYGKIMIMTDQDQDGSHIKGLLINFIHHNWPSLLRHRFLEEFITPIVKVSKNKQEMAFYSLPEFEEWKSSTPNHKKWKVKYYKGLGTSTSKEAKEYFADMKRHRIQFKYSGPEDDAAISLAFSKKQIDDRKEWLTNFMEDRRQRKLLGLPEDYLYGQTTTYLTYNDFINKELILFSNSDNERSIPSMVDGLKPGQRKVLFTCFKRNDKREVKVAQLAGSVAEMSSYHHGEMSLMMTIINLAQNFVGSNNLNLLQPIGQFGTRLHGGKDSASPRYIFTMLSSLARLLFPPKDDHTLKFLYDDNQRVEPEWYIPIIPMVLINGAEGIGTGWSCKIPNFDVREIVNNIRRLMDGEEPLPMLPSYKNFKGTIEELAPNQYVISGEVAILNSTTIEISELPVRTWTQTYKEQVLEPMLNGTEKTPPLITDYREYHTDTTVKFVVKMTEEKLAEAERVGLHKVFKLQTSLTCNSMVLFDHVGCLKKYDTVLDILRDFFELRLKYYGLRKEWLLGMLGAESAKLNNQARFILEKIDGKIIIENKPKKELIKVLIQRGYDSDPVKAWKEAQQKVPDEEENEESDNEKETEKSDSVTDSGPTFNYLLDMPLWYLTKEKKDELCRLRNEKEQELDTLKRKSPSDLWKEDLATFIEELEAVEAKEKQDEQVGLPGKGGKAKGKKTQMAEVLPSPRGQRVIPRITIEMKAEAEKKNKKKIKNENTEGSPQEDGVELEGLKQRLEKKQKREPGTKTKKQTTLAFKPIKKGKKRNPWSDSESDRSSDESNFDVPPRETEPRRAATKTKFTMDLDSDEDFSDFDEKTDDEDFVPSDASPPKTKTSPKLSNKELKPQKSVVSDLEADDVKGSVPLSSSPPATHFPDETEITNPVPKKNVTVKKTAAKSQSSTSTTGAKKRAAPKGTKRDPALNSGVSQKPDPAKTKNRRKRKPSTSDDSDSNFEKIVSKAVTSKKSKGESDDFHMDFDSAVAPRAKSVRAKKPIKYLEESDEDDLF

In the case of `CC(C)(O)[C@H]1Cc2c(cc(O)c3c(=O)c(-c4ccc(O)cc4)coc23)O1`, the GI50 (SF-539) is reported as 53.7 µM, the Activity [1] is reported as “Non-Toxic” and the GI50 (DU-145) is reported as greater than 100 µM. It also gave a GI50 (NCI-H460) greater than 100 µM, a GI50 [2] greater than 100 µM and a GI50 (MKN-45) greater than 100 µM. It also gave a GI50 (A549) greater than 100 µM, a GI50 (LOX IMVI) greater than 100 µM and a GI50 (MKN-28) greater than 100 µM. It also gave a GI50 (HT-29) greater than 100 µM, a GI50 (MKN-1) greater than 100 µM and a GI50 (MCF7) of 89.1 µM. For the same compound, the GI50 (ACHN) was greater than 100 µM, the Activity (GCIY) was “inactive” and the GI50 (DMS-273) was greater than 100 µM. The GI50 (OVCAR-3) was greater than 100 µM, the GI50 (SK-OV-3) was 26.9 µM and the GI50 (NCI-H522) was 47.9 µM. It also gave a GI50 (MDA-MB-231) of 45.7 µM, a GI50 (HCC 2998) greater than 100 µM and a GI50 (SNB-78) greater than 100 µM. The GI50 (HCT-15) was greater than 100 µM, the GI50 (RXF 631) was 85.1 µM and the GI50 (U-251) was greater than 100 µM. For the same compound, the GI50 (SNB-75) was 16.6 µM, the GI50 (SF-295) was 52.5 µM and the GI50 (KM12) was greater than 100 µM. The GI50 (St-4) was greater than 100 µM, the GI50 (MKN-7) was greater than 100 µM and the GI50 [3] was greater than 100 µM. It also gave a GI50 (PC-3) of 91.2 µM, a GI50 (NCI-H23) greater than 100 µM and a GI50 (OVCAR-8) greater than 100 µM. It also gave a GI50 (OVCAR-5) greater than 100 µM, a GI50 [4] greater than 100 µM and a GI50 (NCI-H226) greater than 100 µM. For the same compound, the GI50 (HCT-116) was greater than 100 µM, the GI50 (DMS-114) was greater than 100 µM and the GI50 (SF-268) was greater than 100 µM. The GI50 (MKN-74) was greater than 100 µM and the GI50 (OVCAR-4) was greater than 100 µM.

In the case of `O=c1c(-c2ccc(O)cc2)coc2cc(O)cc(O)c12` [GENISTEIN], the GI50 (SF-539) is reported as 26.3 µM, the GI50 (NCI-H460) is reported as 26.3 µM and the GI50 [2] is reported as 26.9 µM. It also gave a GI50 (MKN-45) of 32.4 µM, a GI50 (A549) of 26.3 µM and a GI50 (LOX IMVI) of 18.2 µM. It also gave a GI50 (MKN-28) of 39.8 µM, a GI50 (HT-29) of 53.7 µM and a GI50 (MKN-1) of 25.1 µM. For the same compound, the GI50 (MCF7) was 42.7 µM, the GI50 (ACHN) was 19.5 µM and the GI50 (DMS-273) was 21.9 µM. It also gave a GI50 (OVCAR-3) of 31.6 µM, a GI50 (SK-OV-3) of 89.1 µM and a GI50 (NCI-H522) of 17.8 µM. It also gave a GI50 (MDA-MB-231) of 37.2 µM, a GI50 (HCC 2998) of 45.7 µM and a GI50 (SNB-78) of 38.9 µM. For the same compound, the GI50 (HCT-15) was 30.2 µM, the GI50 (RXF 631) was 40.7 µM and the GI50 (U-251) was 42.7 µM. For the same compound, the GI50 (SNB-75) was 15.8 µM, the GI50 (SF-295) was 28.8 µM and the GI50 (KM12) was 50.1 µM. The GI50 (St-4) was 46.8 µM, the GI50 (MKN-7) was 30.2 µM and the GI50 [3] was 43.7 µM. The GI50 (NCI-H23) was 36.3 µM, the GI50 (OVCAR-8) was 35.5 µM and the GI50 (OVCAR-5) was 50.1 µM. It also gave a GI50 [4] of 43.7 µM, a GI50 (NCI-H226) of 27.5 µM and a GI50 (HCT-116) of 25.1 µM. It also gave a GI50 (DMS-114) of 49 µM, a GI50 (SF-268) of 30.2 µM and a GI50 (MKN-74) of 36.3 µM. It also gave a GI50 (OVCAR-4) of 43.7 µM.

For `O=c1[nH]cc(F)c(=O)[nH]1` [FLUOROURACIL], the Activity [1] was “Non-Toxic” and the Activity (GCIY) was “Active”.

`COc1cc([C@@H]2c3cc4c(cc3[C@@H](O[C@@H]3O[C@@H]5CO[C@@H](C)O[C@H]5[C@H](O)[C@H]3O)[C@H]3COC(=O)[C@H]23)OCO4)cc(OC)c1O` [ETOPOSIDE] gave a GI50 (SF-539) of 1.86 µM, a GI50 (DU-145) of 2.82 µM and a GI50 (NCI-H460) of 1.15 µM. For the same compound, the GI50 [2] was 51.3 µM, the GI50 (MKN-45) was 7.94 µM and the GI50 (A549) was 2 µM. It also gave a GI50 (LOX IMVI) of 3.47 µM, a GI50 (MKN-28) of 21.4 µM and a GI50 (HT-29) of 22.9 µM. For the same compound, the GI50 (MKN-1) was 2.14 µM, the GI50 (MCF7) was 2.24 µM and the GI50 (ACHN) was 2.09 µM. The GI50 (DMS-273) was 1.74 µM, the GI50 (OVCAR-3) was 23.4 µM and the GI50 (SK-OV-3) was 3.98 µM. For the same compound, the GI50 (NCI-H522) was 4.68 µM, the GI50 (MDA-MB-231) was 21.4 µM and the GI50 (HCC 2998) was 5.62 µM. The GI50 (SNB-78) was 44.7 µM, the GI50 (HCT-15) was 16.2 µM and the GI50 (RXF 631) was 12.3 µM. The GI50 (U-251) was 2.34 µM, the GI50 (SNB-75) was 6.92 µM and the GI50 (SF-295) was 2.75 µM. It also gave a GI50 (KM12) of 14.1 µM, a GI50 (St-4) of 20.9 µM and a GI50 (MKN-7) of 25.7 µM. It also gave a GI50 [3] of 16.6 µM, a GI50 (PC-3) greater than 100 µM and a GI50 (NCI-H23) of 4.07 µM. It also gave a GI50 (OVCAR-8) of 6.76 µM, a GI50 (OVCAR-5) of 19.5 µM and a GI50 [4] of 5.37 µM. The GI50 (NCI-H226) was 4.9 µM, the GI50 (HCT-116) was 14.8 µM and the GI50 (DMS-114) was 2.88 µM. The GI50 (SF-268) was 5.37 µM, the GI50 (MKN-74) was 49 µM and the GI50 (OVCAR-4) was 38.9 µM. For the same compound, the inhibition [5] was “Active”.
